Patent US6653286B1, “Gonadotropin releasing hormone antagonist” (Akzo Nobel NV, priority 1997, dated 2003)
Square brackets hold non-standard residues; d marks the D form. Peptide text beside a SMILES is read from it. d(hArg(Et2)) = CCN=C(NCC)NCCCC[C@@H](N)C(=O)O; hArg(Et2) = CCN=C(NCC)NCCCC[C@H](N)C(=O)O; dPhe(4-Cl) = N[C@H](Cc1ccc(Cl)cc1)C(=O)O; d2Nal = N[C@H](Cc1ccc2ccccc2c1)C(=O)O; d3Pal = N[C@H](Cc1cccnc1)C(=O)O

Experiments:
premature LH surges = experiment: phase II double-blind dose-finding study of ganirelix in women undergoing controlled ovarian hyperstimulation with recFSH; assay type: in vivo, human
Description: In order to establish the minimum effective dose of ganirelix to prevent premature LH surges in women undergoing COH with recombinant FSH, a double-blind dose-finding study was performed with 6 test doses ranging between 2 mg and 0.0625 mg ganirelix.
This study was a phase II, multi-centre, double-blind, randomized, dose-finding study to assess the efficacy of the GnRH-antagonist ganirelix to prevent premature LH surges in women undergoing controlled ovarian hyperstimulation with recFSH. The dosages of ganirelix are administered by one daily SC administration.
RecFSH treatment started on day 2 of the menstrual cycle (treatment day -5) by a once daily SC injection. From treatment day -5 through day -1 the dose of recFSH was fixed at 150 IU daily. After 5 days of recFSH treatment (day 7 of the menstrual cycle), ganirelix treatment was started by daily SC administration. Treatment continued until and including the last day of recFSH administration. During ganirelix treatment, the dose of recFSH was adjusted depending on the individual ovarian response as assessed by daily ultra sonographic scan (USS). As soon as at least 3 folicles ≧17 mm measured by USS were observed, hCG was administered for ovulation induction. About 30-36 hours thereafter oocyte pick-up was performed followed by in vitro fertilization (IVF) with or without intracytoplasmic sperm injection (ICSI). No more than 3 embryos were replaced.
If during ganirelix treatment a premature LH rise occurred e.g. at least one value of serum LH ≧15 IU/L according to the local LH immunoassay the investigator canceled the cycle or tried to rescue the cycle by giving hCG prematurely. In addition, the investigator notified the sponsor about the occurrence of the LH rise and the central laboratory was requested to confirm the LH rise was ≧10 IU/L according to the central LH immunoassay. Subsequently, all data of such subject with a premature LH rise were forwarded to an Independent Advisory Committee which was installed in order to advice on stopping a treatment arm in case of LH rises during ganirelix treatment.
During the study, some investigators informed the sponsor on one or more cases of extremely low serum LH and failing estradiol concentrations as well as follicle growth arrest after starting ganirelix treatment. For this reason the External Independent Advisory Committee was requested to review all clinical data available in order to evaluate whether these observations were dose related and whether, in their opinion, there was reason to stop one or more treatment arms.
In addition, the Independent Advisory Committee reviewed all rises of LH (≧15 IU/L according to the local LH immunoassay and ≧10 IU/L according to the central LH immunoassay) during ganirelix treatment. Based on their evaluation the External Committee advised the sponsor to stop the highest (2 mg) and lowest (0.0625 mg) treatment dose of ganirelix. The study was completed for the other dosage groups.
In total 333 subjects started recFSH treatment and 332 subjects started ganirelix treatment. Because of major protocol violation 3 subjects were excluded from the analysis. The final number of patients per dosing group are included in Table 1.

pituitary-gonadal axis = conditions: cited from earlier work

## CCN=C(NCC)NCCCC[C@H](NC(=O)[C@H](CC(C)C)NC(=O)[C@@H](CCCCNC(=NCC)NCC)NC(=O)[C@H](Cc1ccc(O)cc1)NC(=O)[C@H](CO)NC(=O)[C@@H](Cc1cccnc1)NC(=O)[C@@H](Cc1ccc(Cl)cc1)NC(=O)[C@@H](Cc1ccc2ccccc2c1)NC(C)=O)C(=O)N1CCC[C@H]1C(=O)N[C@H](C)C(N)=O [ganirelix, N-Acetyl-3-(2-naphtyl)-D-alanyl-4-chloro-D-phenylalanyl-3-(3-pyridyl)-D-alanyl-L-seryl-L-tyrosyl-N^ω,N^ω-diethyl-D-homoarginyl-L-leucin-N^ω,N^ω-diethyl-Lhomoarginyl-L-propyl-D-alanylamide acetate] (Ac-[d2Nal][dPhe(4-Cl)][d3Pal]SY[d(hArg(Et2))]L[hArg(Et2)]P[dA]-NH2)
Premature LH surges; 0.0625 mg daily SC
  Median serum E2 (estradiol) at the day of hCG (= last day of ganirelix): 1475 pg/mL
  Median serum LH at the day of hCG (= last day of ganirelix): 3.56 IU/L
Premature LH surges; 0.0625 mg daily SC, N = 31, number of subjects (%)
  Incidence of LH rises: 5 (16%)
Premature LH surges; 0.0625 mg to 2 mg daily SC
  Serum ganirelix concentration versus dose: increased in a dose-proportional manner
Premature LH surges; 0.125 mg daily SC
  Median serum E2 (estradiol) at the day of hCG (= last day of ganirelix): 1130 pg/mL
  Median serum LH at the day of hCG (= last day of ganirelix): 2.46 IU/L
Premature LH surges; 0.125 mg daily SC, N = 65, number of subjects (%)
  Incidence of LH rises: 6 (9.2%)
Premature LH surges; 0.25 mg daily SC
  Median serum E2 (estradiol) at the day of hCG (= last day of ganirelix): 1160 pg/mL
  Median serum LH at the day of hCG (= last day of ganirelix): 1.73 IU/L
Premature LH surges; 0.25 mg daily SC, N = 69, number of subjects (%)
  Incidence of LH rises: 1 (1.4%)
Premature LH surges; 0.5 mg daily SC
  Median serum E2 (estradiol) at the day of hCG (= last day of ganirelix): 823 pg/mL
  Median serum LH at the day of hCG (= last day of ganirelix): 1.02 IU/L
Premature LH surges; 0.5 mg daily SC, N = 69, number of subjects
  Incidence of LH rises: 0
Premature LH surges; 1 mg daily SC
  Median serum E2 (estradiol) at the day of hCG (= last day of ganirelix): 703 pg/mL
  Median serum LH at the day of hCG (= last day of ganirelix): 0.57 IU/L
Premature LH surges; 1 mg daily SC, N = 65, number of subjects
  Incidence of LH rises: 0
Premature LH surges; 2 mg daily SC
  Median serum E2 (estradiol) at the day of hCG (= last day of ganirelix): 430 pg/mL
  Median serum LH at the day of hCG (= last day of ganirelix): 0.34 IU/L
Premature LH surges; 2 mg daily SC, N = 30, number of subjects
  Incidence of LH rises: 0
Premature LH surges; 2 mg dose group
  miscarriage rate: 13%
Premature LH surges; 2 mg dose group, per attempt (those who started hormonal treatment)
  vital pregnancy rate per attempt: 3.8%
Premature LH surges; 2 mg dose group, per transfer (those who had embryo transfer)
  vital pregnancy rate per transfer: 4.3%
pituitary-gonadal axis; 1 mg or 2 mg daily SC for 8 consecutive days, reproductive age women
  suppression of the pituitary-gonadal axis: rapid, profound, reversible suppression
pituitary-gonadal axis; 8 h after the first injection, 1 mg or 2 mg daily SC
  maximal mean LH suppression: approximately 60%
